Laboratory results reported in PMC6100356, “The Design and Synthesis of N-Xanthone Benzenesulfonamides as Novel Phosphoglycerate Mutase 1 (PGAM1) Inhibitors” (Molecules : A Journal of Synthetic Chemistry and Natural …, 2018).

Experiments:
H1299 cell line = test: In vitro antiproliferation of H1299 cells (MTT method); type: cell-based; details: Homo sapiens, NCI-H1299, 72 h, means ± SD from three determinations
Description: Then, some representative compounds were picked out to evaluate their antiproliferative activity (H1299 cell line) by the MTT method (Table 4).
2 × 10^3 cells were seeded in a 96-well plate before starting the assay and they were cultured at 37 °C. After seeding for 24 h, cells were treated with inhibitors with a specific concentration and incubated at 37 °C for 72 h, followed by incubation with 0.5 mg mL^−1 MTT for 4 h at 37 °C. Then, 200 µL of DMSO was added and the absorbance was measured at 570 nm.

enolase, PK, LDH = test: Counter-screen assay (coupled enzymes without PGAM1, 2PG as substrate); type: biochemical
Description: The counter-screen assay was then performed to exclude the off-target inhibition against other enzymes in the in vitro assay (Table 3).

PGAM1 = details: Figure 1; ref 14 (PGMI-004A), ref 20 (EGCG); cited from earlier work
H1299 cell = details: Figure 1; ref 14 (PGMI-004A), ref 20 (EGCG); cited from earlier work

| Structure (SMILES) | IC50 (H1299 cell line) | Counter-Screen Assay (5 μM), inhibition ratio against the other three enzymes (enolase, PK, LDH) | IC50 (PGAM1) | IC50 (H1299 cell) |
| --- | --- | --- | --- | --- |
| O=c1c2c(O)cccc2oc2cc(NS(=O)(=O)c3cccc(Cl)c3F)cc(O)c12 [Compound 9h, 3-Chloro-N-(1,8-dihydroxy-9-oxo-9H-xanthen-3-yl)-2-fluorobenzenesulfonamide] | 14.1 ± 1.9 µM | 12% | – | – |
| CC(C)(C)c1ccc(S(=O)(=O)Nc2cc(O)c3c(=O)c4c(O)cccc4oc3c2)cc1 [Compound 9k, 4-(tert-Butyl)-N-(1,8-dihydroxy-9-oxo-9H-xanthen-3-yl)benzenesulfonamide] | 21.1 ± 1.7 µM | 12% | – | – |
| O=c1c2c(O)cccc2oc2cc(NS(=O)(=O)c3ccc(C4CCCCC4)cc3)cc(O)c12 [Compound 9l, 4-Cyclohexyl-N-(1,8-dihydroxy-9-oxo-9H-xanthen-3-yl)benzenesulfonamide] | 18.5 ± 2.3 µM | 15% | – | – |
| O=c1c2c(O)cccc2oc2cc(NS(=O)(=O)c3ccc(-c4ccccc4)cc3)cc(O)c12 [Compound 9m, N-(1,8-Dihydroxy-9-oxo-9H-xanthen-3-yl)-[1,1′-biphenyl]-4-sulfonamide] | 20.1 ± 1.4 µM | 9% | – | – |
| O=c1c2c(O)cccc2oc2cc(NS(=O)(=O)c3cccc4ccccc34)cc(O)c12 [Compound 9n, N-(1,8-Dihydroxy-9-oxo-9H-xanthen-3-yl)naphthalene-1-sulfonamide] | – | 13% | – | – |
| O=C(O[C@@H]1Cc2c(O)cc(O)cc2O[C@@H]1c1cc(O)c(O)c(O)c1)c1cc(O)c(O)c(O)c1 [EGCG, epigallocatechin gallate] | – | – | 0.49 µM | > 80 µM |
| Nc1ccn([C@@H]2O[C@H](CO)[C@@H](O)C2(F)F)c(=O)n1 [Gemcitabine, reference compound] | 0.193 µM | – | – | – |
| O=C1c2ccccc2C(=O)c2c1cc(S(=O)(=O)Nc1ccc(C(F)(F)F)cc1)c(O)c2O [PGMI-004A, reference compound] | 26 ± 2.1 µM | – | – | 25.6 µM |

Further lines, with some results ahead:

| IC50 (H1299 cell line) | Counter-Screen Assay (5 μM), inhibition ratio against the other three enzymes (enolase, PK, LDH) | Structure (SMILES) | IC50 (PGAM1) | IC50 (H1299 cell) |
| --- | --- | --- | --- | --- |
| 42.7 ± 3.9 µM | 13% | COc1cccc2c(=O)c3c(O)cc(NS(=O)(=O)c4ccc(-c5ccccc5)cc4)cc3oc12 [Compound 15b, N-(1-Hydroxy-5-methoxy-9-oxo-9H-xanthen-3-yl)-[1,1′-biphenyl]-4-sulfonamide] | – | – |
| – | 7% | Cc1cccc2c(=O)c3c(O)cc(NS(=O)(=O)c4ccc(-c5ccccc5)cc4)cc3oc12 [Compound 15c, N-(1-Hydroxy-5-methyl-9-oxo-9H-xanthen-3-yl)-[1,1′-biphenyl]-4-sulfonamide] | – | – |
| 19.6 ± 2.2 µM | 6% | COc1ccc2oc3cc(NS(=O)(=O)c4ccc(-c5ccccc5)cc4)cc(O)c3c(=O)c2c1 [Compound 15d, N-(1-Hydroxy-7-methoxy-9-oxo-9H-xanthen-3-yl)-[1,1′-biphenyl]-4-sulfonamide] | – | – |
| – | 7% | Cc1ccc2oc3cc(NS(=O)(=O)c4ccc(-c5ccccc5)cc4)cc(O)c3c(=O)c2c1 [Compound 15e, N-(1-Hydroxy-7-methyl-9-oxo-9H-xanthen-3-yl)-[1,1′-biphenyl]-4-sulfonamide] | – | – |
| 32.7 ± 0.9 µM | 8% | O=c1c2cc(Cl)ccc2oc2cc(NS(=O)(=O)c3ccc(-c4ccccc4)cc3)cc(O)c12 [Compound 15f, N-(7-Chloro-1-hydroxy-9-oxo-9H-xanthen-3-yl)-[1,1′-biphenyl]-4-sulfonamide] | – | – |
| 33.8 ± 6.1 µM | 5% | O=c1c2cc([N+](=O)[O-])ccc2oc2cc(NS(=O)(=O)c3ccc(-c4ccccc4)cc3)cc(O)c12 [Compound 15h, N-(1-Hydroxy-7-nitro-9-oxo-9H-xanthen-3-yl)-[1,1′-biphenyl]-4-sulfonamide] | – | – |
| 30.6 ± 2.4 µM | 10% | O=c1c2cc(O)ccc2oc2cc(NS(=O)(=O)c3ccc(-c4ccccc4)cc3)cc(O)c12 [Compound 15i, N-(1,7-Dihydroxy-9-oxo-9H-xanthen-3-yl)-[1,1′-biphenyl]-4-sulfonamide] | – | – |
| 31.1 ± 4.5 µM | 7% | CC(=O)Oc1ccc2oc3cc(NS(=O)(=O)c4ccc(-c5ccccc5)cc4)cc(O)c3c(=O)c2c1 [Compound 15j, 6-([1,1′-Biphenyl]-4-sulfonamido)-8-hydroxy-9-oxo-9H-xanthen-2-yl acetate] | – | – |
